# Measurements as given in patent US12227495B2, “Herbicidal compounds” (SYNGENTA CROP PROTECTION AG, priority 2018, dated 2025).
# Columns and labels:
# Assay type in all cases: in vivo
# [1] = test system: Amaranthus retoflexus (AMARE); experiment: Post-emergence herbicide test, glasshouse, percentage damage; details: 1000 g/ha, evaluated after 13 days
# Method in brief: (§1)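 Pots of standard soil were sown and kept in a glasshouse at 24/16 °C day/night, 14 h light, 65% humidity; plants were sprayed one day after sowing (pre-emergence) or after 8 days (post-emergence) at 500 g/ha unless otherwise stated. Damage was scored after 13 days on a five-point scale (5=81-100%; 1=0-20%).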
# [2] = test system: Echinochloa crus-galli (ECHCG); experiment: as above; details: 1000 g/ha, evaluated after 13 days
# Method in brief: as §1
# [3] = test system: Ipomoea hederacea (IPOHE); experiment: as above; details: 1000 g/ha, evaluated after 13 days
# Method in brief: as §1
# Lolium perenne (LOLPE) [4] = experiment: as above; details: 1000 g/ha, evaluated after 13 days
# Method in brief: as §1
# Setaria faberi (SETFA) [5] = experiment: as above; details: 1000 g/ha, evaluated after 13 days
# Method in brief: as §1
# Solanum nigrum (SOLNI) [6] = experiment: as above; details: 1000 g/ha, evaluated after 13 days
# Method in brief: as §1
# [7] = test system: Amaranthus retoflexus (AMARE); experiment: Pre-emergence herbicide test, glasshouse, percentage damage; details: rate 1000 g/ha, evaluated after 13 days
# Method in brief: as §1
# [8] = test system: Echinochloa crus-galli (ECHCG); experiment: as above; details: rate 1000 g/ha, evaluated after 13 days
# Method in brief: as §1
# [9] = test system: Ipomoea hederacea (IPOHE); experiment: as above; details: rate 1000 g/ha, evaluated after 13 days
# Method in brief: as §1
# Lolium perenne (LOLPE) [10] = experiment: as above; details: rate 1000 g/ha, evaluated after 13 days
# Method in brief: as §1
# Setaria faberi (SETFA) [11] = experiment: as above; details: rate 1000 g/ha, evaluated after 13 days
# Method in brief: as §1
# Solanum nigrum (SOLNI) [12] = experiment: as above; details: rate 1000 g/ha, evaluated after 13 days
# Method in brief: as §1
Structure (SMILES),"percentage damage caused to the plant, AMARE [1]","percentage damage caused to the plant, ECHCG [2]","percentage damage caused to the plant, IPOHE [3]","percentage damage caused to the plant, LOLPE (Lolium perenne (LOLPE) [4])","percentage damage caused to the plant, SETFA (Setaria faberi (SETFA) [5])","percentage damage caused to the plant, SOLNI (Solanum nigrum (SOLNI) [6])",Pre-emergence Test AMARE percentage damage (five point scale) [7],Pre-emergence Test ECHCG percentage damage (five point scale) [8],Pre-emergence Test IPOHE percentage damage (five point scale) [9],Pre-emergence Test LOLPE percentage damage (five point scale) (Lolium perenne (LOLPE) [10]),Pre-emergence Test SETFA percentage damage (five point scale) (Setaria faberi (SETFA) [11]),Pre-emergence Test SOLNI percentage damage (five point scale) (Solanum nigrum (SOLNI) [12])
Fc1cc(Cl)cnc1Oc1ccccc1-n1cc(C(F)(F)F)nn1 [Compound A82],5 (5=81-100%),4 (4=61-80%),5 (5=81-100%),5 (5=81-100%),5 (5=81-100%),5 (5=81-100%),5 (5=81-100%),5 (5=81-100%),5 (5=81-100%),5 (5=81-100%),5 (5=81-100%),4 (4=61-80%)
Fc1cc(Cl)cnc1Oc1c(Br)cccc1-c1cc(C(F)F)no1 [Compound A83],5 (5=81-100%),4 (4=61-80%),2 (2=21-40%),4 (4=61-80%),4 (4=61-80%),4 (4=61-80%),4 (4=61-80%),2 (2=21-40%),1 (1=0-20%),1 (1=0-20%),2 (2=21-40%),1 (1=0-20%)
N#Cc1cc(F)cnc1Oc1cccc(Br)c1-c1cc(C(F)F)no1 [Compound A84],5 (5=81-100%),5 (5=81-100%),5 (5=81-100%),5 (5=81-100%),5 (5=81-100%),5 (5=81-100%),5 (5=81-100%),5 (5=81-100%),5 (5=81-100%),5 (5=81-100%),5 (5=81-100%),4 (4=61-80%)
N#Cc1cc(F)cnc1Oc1cccc(Cl)c1-c1cc(C(F)F)no1 [Compound A85],5 (5=81-100%),5 (5=81-100%),5 (5=81-100%),5 (5=81-100%),5 (5=81-100%),5 (5=81-100%),5 (5=81-100%),5 (5=81-100%),5 (5=81-100%),5 (5=81-100%),5 (5=81-100%),5 (5=81-100%)
